Data as given in patent US20170087180A1, “METHODS AND COMPOSITIONS FOR TREATING NITRIC OXIDE DEFICIENCY DISORDERS AND RELATED CONDITIONS” (Sulfagenix, Inc., priority 2014, published 2017).

System: men with oligoasthenozoospermia
Test: placebo-controlled randomized study of SG1002 compared to resveratrol in men with oligoasthenozoospermia
Format: in vivo
Conditions: SG1002 500 mg daily, resveratrol 50 mg daily, 54 men
Method: There was one placebo-controlled randomized study of SG1002,500 mg daily compared to resveratrol 50 mg daily in 54 men with oligoasthenozoospermia. Men treated with SG1002 had increased sperm concentration, motility and motile forms recovery compared to those treated with placebo. Resveratrol had no effect on any of these parameters. During the study, three men in the SG1002 arm withdrew: one due to excessive flatulence and nausea, one due to “smelly” sweating, and one for convenience.

Oc1ccc(C=Cc2cc(O)cc(O)c2)cc1 [Resveratrol, resveratrol]
no effect: motile forms recovery | sperm concentration | sperm motility
